Measurements reported in US8008354B2, “Death receptor sensitizing compounds and methods of use therefor” (Burnham Institute for Medical Research, priority 2006, dated 2011).

Tested on: E1A-transformed wild-type (WT) and caspase 8-/- MEFs
Test: MTS viability of wild-type and caspase 8-/- MEFs in suspension conditions
Format: cell-based
Conditions: ten hours
Experimental: FIG. 15. 5809354 sensitizes cells to anoikis through a caspase 8 dependent mechanism. (A) PPC-1 cells (5×10^4) were cultured under suspension conditions overnight and then treated with 5809354 in the presence or absence of the pan-caspase inhibitor z-VAD-fink (100 μM). Thirty hours after incubation, anoikis was determined by flow cytometry to detect cell surface annexin V expression and PI uptake. Data represents the mean±SEM percent of viable cells or colonies compared to untreated controls. (B) PPC-1 cells (5×10^4) were cultured in suspension conditions overnight and then treated with 5809354 (60 μM). At increasing times after treatment, caspase activation was detected with FITC-labeled peptides that bind preferentially and irreversibly to caspase 3/7, 8, or 9. Caspase activation was monitored by flow cytometry to quantify the percentage of fluorescently labeled cells. […] At increasing times after incubation, total cellular protein was isolated and analyzed by SDS-PAGE immunoblotting using anti-caspase 8 and anti-actin antibodies. * indicates cleaved caspase 8. […] Thirty hours after incubation, apoptosis was measured by cell surface annexin V expression and PI uptake. […] Ten hours after incubation, cell viability was measured using the MTS assay. […] EGFP expression and nuclear morphology were analyzed by fluorescence microscopy. […]

Question: For “4-(4-chloro-2-methylphenoxy)-N-hydroxybutanamide [compound 5809354]”, which “anoikis of caspase 8-deficient MEFs compared to wild-type” value is on record?
Answer: The value was “resistant”.
